Measured values: ChEMBL document CHEMBL1201862, “PubChem BioAssay data set” (2004)
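Assay format: 96-well plates, 48-hour exposure. GI50: concentration for 50% inhibition of growth.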 Activity calls are given as the source filed them. Rule as the data show it: active = GI50 up to about 1.1 µM and inactive = higher.

Columns and labels:
Assay in all cases: NCI tumour cell line growth inhibition, 48 h
[1] = system: NCI-H460
[2] = system: UO-31
[3] = system: TK-10
[4] = system: M19-MEL
[5] = system: U-251
[6] = system: 786-0
[7] = system: HT-29
[8] = system: LOX IMVI
[9] = system: SN12C
[10] = system: KM-20L2
[11] = system: RXF 393
[12] = system: SF-268
[13] = system: SK-OV-3
[14] = system: HCT-116
[15] = system: HOP-92
[16] = system: OVCAR-5
[17] = system: HCC 2998
[18] = system: SR
[19] = system: BT-549
[20] = system: PC-3

Measured: GI50

Cn1nc(-c2ccccc2)c(C(=O)/C=C/c2ccc(Cl)cc2)c(N2CCOCC2)c1=O
inactive: [1] 2.64 µM | [2] 9.71 µM | [3] 7.94 µM | [4] 5.24 µM | [5] 3.37 µM | [6] 2.87 µM | [7] 1.83 µM | [8] 3.44 µM | [9] 5.7 µM | [10] 3.45 µM | [11] 2.34 µM | [12] 3.48 µM | [13] 5.51 µM | [14] 1.85 µM | [15] 2.11 µM

COc1ccc(C(=O)C(C(=O)C(=O)Nc2nc3ccc(OC)cc3s2)c2ccc(OC)cc2)cc1 (stereo not drawn)
inactive: [1] > 100 µM | [2] 89.5 µM | [3] > 100 µM | [4] > 100 µM | [5] > 100 µM | [6] > 100 µM | [7] > 100 µM | [8] > 100 µM | [9] > 100 µM | [10] > 100 µM | [16] > 100 µM | [12] > 100 µM | [13] > 100 µM | [17] > 100 µM | [15] > 100 µM

O=C(O)CNc1c2ccccc2[n+]([O-])c2ccccc12
inactive: [1] > 100 µM | [2] 43.4 µM | [3] > 100 µM | [4] > 100 µM | [5] > 100 µM | [6] > 100 µM | [7] > 100 µM | [8] 78.7 µM | [9] > 100 µM | [10] > 100 µM | [16] > 100 µM | [12] > 100 µM | [13] > 100 µM | [14] 44.6 µM | [17] > 100 µM

N#C/C(=C\c1ccccc1O)C(N)=O
inactive: [1] 55.7 µM | [2] 43.6 µM | [3] > 100 µM | [4] > 100 µM | [5] > 100 µM | [6] > 100 µM | [7] 86.9 µM | [8] > 100 µM | [9] > 100 µM | [10] > 100 µM | [11] 25.7 µM | [16] > 100 µM | [12] 81.7 µM | [13] 53.1 µM | [14] 77.3 µM | [17] > 100 µM | [15] 32.3 µM

OCCc1cnco1
inactive: [1] > 100 µM | [3] > 100 µM | [4] > 100 µM | [5] > 100 µM | [6] > 100 µM | [7] > 100 µM | [8] > 100 µM | [9] > 100 µM | [10] > 100 µM | [11] > 100 µM | [12] > 100 µM | [13] > 100 µM | [14] > 100 µM | [17] > 100 µM

CC1(C)CC(/C=C2/OC(=O)c3ccccc32)=C(C(N)=O)C(=O)O1
inactive: [1] > 100 µM | [2] 83.9 µM | [4] > 100 µM | [5] > 100 µM | [6] > 100 µM | [18] > 100 µM | [7] > 100 µM | [8] > 100 µM | [9] > 100 µM | [10] > 100 µM | [16] > 100 µM | [12] > 100 µM | [13] > 100 µM | [14] > 100 µM | [17] > 100 µM

COC(=O)C(Cc1c[nH]c2ccccc12)NP(=O)(O)OCC1OC(n2cc(Br)c(=O)[nH]c2=O)CC1O (stereo not drawn)
inactive: [1] > 100 µM | [2] > 100 µM | [3] > 100 µM | [5] > 100 µM | [6] > 100 µM | [18] > 100 µM | [7] > 100 µM | [8] > 100 µM | [9] > 100 µM | [11] > 100 µM | [16] > 100 µM | [19] > 100 µM | [12] > 100 µM | [13] > 100 µM | [20] > 100 µM | [14] > 100 µM | [17] > 100 µM | [15] > 100 µM

N#CC(C(=O)CCCC(=O)Nc1ccc(Cl)cc1Cl)c1ccc(Cl)cc1 (stereo not drawn)
inactive: [1] > 100 µM | [2] > 100 µM | [3] > 100 µM | [6] > 100 µM | [18] > 100 µM | [7] > 100 µM | [8] > 100 µM | [9] > 100 µM | [10] > 100 µM | [16] > 100 µM | [12] > 100 µM | [13] > 100 µM | [14] > 100 µM | [17] > 100 µM | [15] > 100 µM

CC1(C)C2CCC13CS(=O)(=O)N1O[C@]13C(=O)O2 (stereo partly drawn)
inactive: [1] > 100 µM | [2] > 100 µM | [3] > 100 µM | [4] > 100 µM | [5] > 100 µM | [6] > 100 µM | [18] > 100 µM | [7] > 100 µM | [8] > 100 µM | [9] > 100 µM | [10] > 100 µM | [16] > 100 µM | [12] > 100 µM | [14] > 100 µM | [17] > 100 µM | [15] > 100 µM

CC(N)Cc1ccc(C(=O)Cl)cc1 (stereo not drawn)
inactive: [1] > 100 µM | [3] > 100 µM | [4] > 100 µM | [5] > 100 µM | [6] > 100 µM | [7] > 100 µM | [8] > 100 µM | [9] > 100 µM | [10] > 100 µM | [11] > 100 µM | [12] > 100 µM | [13] > 100 µM | [14] > 100 µM | [17] > 100 µM

O=[N+]([O-])c1nccn1CC(O)CN1CCCCC1 (stereo not drawn) [PIMONIDAZOLE]
inactive: [1] > 100 µM | [2] > 100 µM | [3] > 100 µM | [5] > 100 µM | [6] > 100 µM | [18] > 100 µM | [7] > 100 µM | [8] > 100 µM | [9] > 100 µM | [11] > 100 µM | [16] > 100 µM | [19] > 100 µM | [12] > 100 µM | [13] > 100 µM | [20] > 100 µM | [14] > 100 µM | [17] > 100 µM | [15] > 100 µM

CN(C(=O)C12C3C4C1C1C2C3C41C(=O)N(C)C(C)(C)C)C(C)(C)C (stereo not drawn)
inactive: [2] > 50 µM | [4] > 50 µM | [5] > 50 µM | [6] > 50 µM | [18] > 50 µM | [7] > 50 µM | [9] > 50 µM | [10] > 50 µM | [12] > 50 µM | [13] > 50 µM | [14] > 50 µM | [17] > 50 µM | [15] > 50 µM

COC(=O)C(=O)C(C(=O)C(=O)Nc1cc(C)ccc1C)c1nc2ccccc2nc1O (stereo not drawn)
inactive: [1] > 100 µM | [2] > 100 µM | [3] > 100 µM | [5] > 100 µM | [6] > 100 µM | [18] 30.3 µM | [7] > 100 µM | [8] > 100 µM | [9] > 100 µM | [11] 77.3 µM | [16] > 100 µM | [19] > 100 µM | [12] > 100 µM | [13] > 100 µM | [20] > 100 µM | [14] > 100 µM | [17] > 100 µM | [15] 26.7 µM
